Source: US4354039A, “Chlorocitric acids” (Hoffmann-La Roche Inc., priority 1981, dated 1982)
Counter-ions that a name gives are not always drawn. Like-named read-outs stand apart in the source and are kept apart here.

What was measured:
[1] = Effect on stomach emptying, [14C] glucose load (Example 25); format: in vivo, Rats; details: for Serum, % of control / Stomach Contents, % of control: 0.33 mmoles/kg oral, 60 min after [14C] glucose load
Protocol: Rats were trained to consume a 3 hr 70% glucose meal from 8 a.m. to 11 a.m. daily. On the experimental day, compounds were administered orally by intubation 30 min before a [^14 C] glucose load was given also by intubation. […] Sixty minutes later the rats were killed by decapitation; blood and stomachs were collected on ice.
Data are expressed as follows: dpm×10^3 per ml of serum and dpm×10^3 per stomach.

[2] = Comparative anorectic activity, food consumption of meal-fed rats (Example 13); format: in vivo, Charles River female rats; details: 3 hr meal
Protocol: Charles River female rats (Charles River Breeding Laboratories, Wilmington, Mass.), weighing 150 to 175 g, were individually housed in wire-bottomed cages in a temperature-regulated (22° C.) light-controlled room (12 hr light, 6 a.m. to 6 p.m. and 12 hr dark, 6 p.m. to 6 a.m.). Animals were fasted 48 hr, then meal-fed the 70% glucose diet described by A. C. Sullivan, et al., J. Nutrition, 101, 265 (1971) from 8 to 11 a.m. Following 5 to 13 days alimentation on the meal-feeding regimen, rats were dosed with the appropriate compounds orally by intubation 1/2 hr before the 3 hr meal. Food cups were weighed immediately after the meal. The control group consists of 31 rats while each drug treated group consists of 5 to 12 rats.
The G-70 diet consisted of 70% glucose, 23% vitamin-free casein, 5% Phillips and Hart salt mixture IV, 1% corn oil, 1% complete vitamin mixture, and 40 g/kg cellulose. To ensure complete uniformity, all diets were mixed with a twen-shell dry blender equipped with an itensifier bar (Patterson-Kelley Co., East Stroudsburg, Pa.).

isolated rat hepatocytes = test: Fatty acid and cholesterol synthesis and CO2 production in isolated hepatocytes (Example 23); format: cell-based, Female Charles River rats; details: for activity at 2000 µM: Rattus norvegicus, Hepatocyte, 1 h, 2 mM, 60 min, 37° C.
Protocol: Female Charles River rats were fasted 48 hr, then meal-fed a 1% corn oil, 70% glucose diet for 7 to 14 days from 8 to 11 a.m. The isolated rat hepatocytes were prepared by perfusing the liver in situ. The hepatocytes were incubated in an oscillating water bath at 37° C. for 60 min. […] All incubations were done in triplicate and all experiments were repeated at least twice. […] The contents of the center well were transferred to scintillation counting fluid and ^14 CO2 content was determined. […] The media was then acidified, extracted with hexane, and the extract counted (to determine the rate of lipogenesis). The conversion of ^3 H2 O and [^14 C]alanine into fatty acids or sterols was determined in a PDS/3, Mark II liquid scintillation counting system.

[3] = Food intake in dogs, pyramiding oral doses (Examples 26 and 27); format: in vivo, beagle dogs
Protocol: Twelve beagle dogs of both sexes weighing 7.6-12.2 kg were used for this test. The test compounds were contained in gelatin capsules for oral administration to two dogs of each sex. The animals were weighed and food consumption calculated daily excluding weekends throughout the test period. Each animal received 800 grams of diet daily consisting of 400 grams of Wayne pellet dog food mixed with 400 ml distilled water. The animals received pyramiding oral doses of the test compound over the three week period. On Monday and Tuesday of the first week the animals were weighed and food consumption was recorded (control). […] Doses of 30, 100 and 300 mg/kg were administered on Monday, Wednesday and Friday respectively during the second week. A final dose of 1000 mg/kg was administered on Monday of the third week.
Food intake was determined by the procedure at pyramiding doses described in EXAMPLE 26.

[4] = Anorectic effect in 8 hour meal-fed Zucker rats (Example 17); format: in vivo, lean (Fa/-) and obese (fa/fa)
Protocol: Lean (Fa/-) Zucker rats and obese (fa/fa) Zucker rats of both sexes were individually housed in wire-bottomed cages in a temperature-regulated (22° C.) light-controlled room (12 hr light, 6 a.m. to 6 p.m. and 12 hr dark, 6 p.m. to 6 a.m.). The animals were fed a high carbohydrate (70% glucose) diet ad libitum for 13 days, dosed with the indicated compounds by oral intubation for 9 days and allowed to recover for 3 days. The animals were then meal fed from 8 a.m. to 4 p.m. for a period of 5 days, following which they were continued on the same meal schedule for an additional 6 days. During the 6-day period, the animals were administered the indicated compounds by oral intubation at 8 a.m. and 12 p.m. Food cups were weighed immediately after the meal.

[5] = Effect of stereoisomers on food consumption of meal-fed rats (Example 14); format: in vivo, Charles River female rats; details: 2.63 mmoles/kg oral
Protocol: Animals were fasted 48 hr, then meal-fed the 70% glucose diet described by A. C. […] Following 5 to 12 days alimentation on the meal-feeding regimen, rats were dosed with the appropriate compounds orally by intubation 1/2 hr before the 3 hr meal. Food cups were weighed immediately after the meal. The control group consisted of 5 to 10 rats, while the experimental group consisted of 4 to 6 rats.

[6] = test day 8, dose 100 mg/kg oral
[7] = test day 10, dose 300 mg/kg oral
[8] = test day 13, dose 1000 mg/kg oral

O=C(O)CC(O)(CC(=O)O)C(=O)O [Trisodium Citrate, reference compound]
Serum, % of control [1]: 112 % of control | Stomach Contents, % of control [1]: 133 % of control

O=C(O)C[C@@](O)(C(=O)O)[C@H](O)C(=O)O [Trisodium (-)-threo-hydroxycitrate, reference compound]
Food Consumption, % of control ([2]; 0.33 mmoles/kg oral): 103 % of control | Food Consumption, % of control ([2]; 0.66 mmoles/kg oral): 80 % of control | Food Consumption, % of control ([2]; 1.32 mmoles/kg oral): 88 % of control | Food Consumption, % of control ([2]; 2.63 mmoles/kg oral): 79 % of control | activity at 2000 µM (isolated rat hepatocytes; read-out: CO2 Production, [14C]alanine converted): 103% | activity at 2000 µM (isolated rat hepatocytes; read-out: Cholesterol Synthesis, 3H2O converted): 60% | activity at 2000 µM (isolated rat hepatocytes; read-out: Cholesterol Synthesis, [14C]alanine converted): 18% | activity at 2000 µM (isolated rat hepatocytes; read-out: Fatty Acid Synthesis, 3H2O converted): 54% | activity at 2000 µM (isolated rat hepatocytes; read-out: Fatty Acid Synthesis, [14C]alanine converted): 30% | Serum, % of control [1]: 79 % of control | Stomach Contents, % of control [1]: 223 % of control

O=C(O)C[C@@](O)(C(=O)O)[C@@H](Cl)C(=O)O (relative stereo) [(±)-threo-Chlorocitric acid]
Food Consumption, % of control ([2]; 0.08 mmoles/kg oral): 57 % of control | Food Consumption, % of control ([2]; 0.17 mmoles/kg oral): 61 % of control | Food Consumption, % of control ([2]; 0.33 mmoles/kg oral): 51 % of control | Food Consumption, % of control ([2]; 0.66 mmoles/kg oral): 35 % of control | Food Consumption, % of control ([2]; 1.32 mmoles/kg oral): 28 % of control | Food Consumption, % of control ([2]; 2.63 mmoles/kg oral): 34 % of control | Food Consumption ([3]; test day 1, dose 3 mg/kg oral): 616 ± 79 g | Food Consumption, % of control ([3]; test day 1, dose 3 mg/kg oral): 129 % of control | Food Consumption ([3]; test day 2, no dose): 392 ± 140 g | Food Consumption, % of control ([3]; test day 2, no dose): 82 % of control | Food Consumption ([3]; test day 3, dose 10 mg/kg oral): 460 ± 136 g | Food Consumption, % of control ([3]; test day 3, dose 10 mg/kg oral): 96 % of control | Food Consumption ([3]; test day 6, dose 30 mg/kg oral): 511 ± 104 g | Food Consumption, % of control ([3]; test day 6, dose 30 mg/kg oral): 107 % of control | Food Consumption, % of control ([3]; test day 7, no dose): 100 % of control | Food Consumption [3, 6]: 299 ± 176 g | Food Consumption, % of control [3, 6]: 62 % of control | Food Consumption ([3]; test day 9, no dose): 492 ± 110 g | Food Consumption, % of control ([3]; test day 9, no dose): 103 % of control | Food Consumption [3, 7]: 316 ± 109 g | Food Consumption, % of control [3, 7]: 66 % of control | Food Consumption [3, 8]: 164 ± 61 g | Food Consumption, % of control [3, 8]: 34 % of control | Food Consumption ([3]; test day 14, no dose): 560 ± 136 g | Food Consumption, % of control ([3]; test day 14, no dose): 117 % of control | Food Consumption ([3]; test day 15, no dose): 543 ± 92 g | Food Consumption, % of control ([3]; test day 15, no dose): 113 % of control | Food Consumption ([3]; test day 16, no dose): 624 ± 88 g | Food Consumption, % of control ([3]; test day 16, no dose): 130 % of control | Food Consumption ([3]; test day 17, no dose): 645 ± 93 g | Food Consumption, % of control ([3]; test day 17, no dose): 135 % of control | Food Consumption ([3]; test day 21, no dose): 561 ± 83 g | Food Consumption, % of control ([3]; test day 21, no dose): 117 % of control | Food Consumption ([3]; test day 22, no dose): 649 ± 91 g | Food Consumption, % of control ([3]; test day 22, no dose): 135 % of control | Food Consumption ([3]; test day 23, no dose): 533 ± 118 g | Food Consumption, % of control ([3]; test day 23, no dose): 111 % of control | Food Consumption ([3]; test day 24, no dose): 477 ± 114 g | Food Consumption, % of control ([3]; test day 24, no dose): 100 % of control | Food Consumption ([3]; test day 27, no dose): 518 ± 139 g | Food Consumption, % of control ([3]; test day 27, no dose): 108 % of control | Food Consumption ([3]; test day 28, no dose): 663 ± 137 g | Food Consumption, % of control ([3]; test day 28, no dose): 138 % of control

O=C(O)CC(O)(C(=O)O)C(O)C(=O)O (single isomer, unassigned) [hydroxycitric acid, reference compound]
inhibition of lipid (fatty acid) and cholesterol syntheses (isolated rat hepatocytes; in words): inhibition of fatty acid and cholesterol syntheses | gastric emptying ([1]; in words, comparable doses): delayed gastric emptying

O=C(O)CC(O)(CC(=O)O)C(=O)O [Citric Acid]
Daily Food Consumption ([4]; Fa/-- lean, 1.32 mmoles/kg group, pretreatment day 0): 11.0 ± 0.8 g | Daily Food Consumption ([4]; Fa/-- lean, 1.32 mmoles/kg oral, day 1): 10.6 ± 1.2 g | Daily Food Consumption ([4]; Fa/-- lean, 1.32 mmoles/kg oral, day 2): 10.0 ± 1.2 g | Daily Food Consumption ([4]; Fa/-- lean, 1.32 mmoles/kg oral, day 3): 12.7 ± 1.0 g | Daily Food Consumption ([4]; Fa/-- lean, 1.32 mmoles/kg oral, day 4): 11.9 ± 0.7 g | Daily Food Consumption ([4]; Fa/-- lean, 1.32 mmoles/kg oral, day 5): 12.6 g | Daily Food Consumption ([4]; Fa/-- lean, 1.32 mmoles/kg oral, day 6): 13.1 ± 0.9 g | Daily Food Consumption ([4]; fa/fa obese, 1.32 mmoles/kg group, pretreatment day 0): 13.4 ± 0.8 g | Daily Food Consumption ([4]; fa/fa obese, 1.32 mmoles/kg oral, day 1): 11.4 ± 0.8 g | Daily Food Consumption ([4]; fa/fa obese, 1.32 mmoles/kg oral, day 2): 13.8 ± 1.2 g | Daily Food Consumption ([4]; fa/fa obese, 1.32 mmoles/kg oral, day 3): 16.5 ± 1.0 g | Daily Food Consumption ([4]; fa/fa obese, 1.32 mmoles/kg oral, day 4): 14.8 ± 0.9 g | Daily Food Consumption ([4]; fa/fa obese, 1.32 mmoles/kg oral, day 6): 16.0 ± 1.0 g | Food Consumption, % of control [5]: 94 % of control
